Source: publication PMC7835349 (Communications Biology, 2021)
Several values for one entry are separate records, joined by “and”; a condition that tells them apart may be missing. Equal entries are not always repeated. Where two headings read alike, the source gives them in different places.

Tests used:
[1] = Plasma pharmacokinetics after IV bolus in C.B-17 SCID mouse; type: in vivo; conditions: for concentration at 0.05 h / concentration at 0.5 h / concentration at 1 h / concentration at 2 h / concentration at 4 h / concentration at 6 h / concentration at 8 h / Concentration AZD4320 in Plasma, individual animals: 5 mg/kg, mouse IV
Protocol: Pharmacokinetic studies were carried out in the female C.B-17 SCID mouse. Either freshly prepared solutions of AZD4320 in 30% hydroxypropyl-β-cyclodextrin or drug-dendrimer conjugates in phosphate buffered saline were injected as a bolus into the tail vein at dosing volume of 5 ml/kg. Blood samples were collected at different time points post dose and analysed as below.
Blood samples were collected from the jugular vein by venepuncture into K2EDTA (as anticoagulant) tubes. Immediately following collection into the K2EDTA tube the samples were mixed gently and kept on crushed ice until centrifugation. Within 30 mins of blood collection, each sample was centrifuged (1500 g for 10 min at 4 °C) to generate plasma which was kept on wet ice at all times in polypropylene tubes. Duplicate 50 μL aliquots were transferred immediately after centrifugation into uniquely labelled polypropylene tubes (‘released’ AZD4320) containing equivalent amount (50 μL) of 0.2 M citric acid solution, inverted 10 times and then stored in a freezer set to maintain a temperature of −80 °C, until analysis.
The concentrations of ‘total’ AZD4320 were determined in plasma by overnight incubation with hydrazine followed by protein precipitation with acetonitrile and subsequent liquid/liquid extraction. Liquid chromatography with mass spectrometric detection (LC-MS/MS, details in Supplementary Table 5) was used to quantitate both ‘released’ and ‘total’ AZD4320.
Sample analyses were performed in batches containing study samples, calibration standards at 10 concentration levels, QC samples at three concentration levels in duplicate and blank samples. The analytical run acceptance criteria for calibration standards and QC samples was that at least 75% of back-calculated concentrations for calibration standards and at least 2/3 of the QC samples (at least 50% at each concentration level) should be within ±20% (±25% at LLOQ) from nominal value.

platelets = assay: Platelet count in rats; type: in vivo
Excerpt: Supplementary Figure 7. Effect of AZD4320 and AZD4320-dendrimer conjugates on platelet count in rats. Data for dendrimers was collected from the same rats for which cardiovascular data were acquired (see Fig. 4a and b). Data for AZD4320 was collected from a non-cardiovascular study. Each symbol represent data from an individual rat. Colours representing each compound and dose are shown on the figure.
(1 picture or pasted object on this page, not shown here)

telemetered dogs = assay: Conscious dog telemetry (QRS amplitude and other cardiovascular parameters, tolerability); conditions: for ECG PR interval / ECG QRS duration / Left ventricular -dP/dt (mmHg/s) / QRS amplitude (% baseline) / Systolic blood pressure (mmHg): 0.2 mg/kg
[2] = dog 264, 0.5h infusion, -0.75 hours (pre-dose)
[3] = dog 264, 0.5h infusion, -1 hours (pre-dose)
[4] = dog 264, 0.5h infusion, -1.25 hours (pre-dose)
[5] = dog, 0.2 mg/kg 0.5h infusion, 0.5 h

CN(CCO)CCC(CSc1ccccc1)Nc1ccc(S(=O)(=O)NC(=O)c2ccc(N3CCC(C(O)c4ccccc4-c4ccc(Cl)cc4)CC3)cc2)cc1S(=O)(=O)C(F)(F)F (centres unmarked) [AZD4320]
plasma concentration relative to initial concentration ([1]; bolus IV, C.B-17 SCID mice, within 10 min): less than 20%
concentration at 0.05 h ([1]; female, C.B-17 SCID, mouse, plasma, intravenous, dosed at 5 mg/kg, 0.05 hr, read-out: Concentration AZD4320 in Plasma, Dose Adjusted to 10 mg/kg): 30600 ng/mL
concentration at 0.5 h ([1]; female, C.B-17 SCID, mouse, plasma, intravenous, dosed at 5 mg/kg, 0.5 hr, read-out: Concentration AZD4320 in Plasma, Dose Adjusted to 10 mg/kg): 1950 ng/mL
concentration at 1 h ([1]; female, C.B-17 SCID, mouse, plasma, intravenous, dosed at 5 mg/kg, 1 hr, read-out: Concentration AZD4320 in Plasma, Dose Adjusted to 10 mg/kg): 870 ng/mL
concentration at 2 h ([1]; female, C.B-17 SCID, mouse, plasma, intravenous, dosed at 5 mg/kg, 2 hr, read-out: Concentration AZD4320 in Plasma, Dose Adjusted to 10 mg/kg): 150 ng/mL
concentration at 4 h ([1]; female, C.B-17 SCID, mouse, plasma, intravenous, dosed at 5 mg/kg, 4 hr, read-out: Concentration AZD4320 in Plasma, Dose Adjusted to 10 mg/kg): 170 ng/mL
concentration at 6 h ([1]; female, C.B-17 SCID, mouse, plasma, intravenous, dosed at 5 mg/kg, 6 hr, read-out: Concentration AZD4320 in Plasma, Dose Adjusted to 10 mg/kg): 120 ng/mL
concentration at 8 h ([1]; female, C.B-17 SCID, mouse, plasma, intravenous, dosed at 5 mg/kg, 8 hr, read-out: Concentration AZD4320 in Plasma, Dose Adjusted to 10 mg/kg): 80 ng/mL
concentration at 0.05 h ([1]; female, C.B-17 SCID, mouse, plasma, iv, AZD4320 dosed at 5 mg/kg, 0.05 hr, read-out: Concentration AZD4320 in Plasma, Mean): 15300 ng/mL
concentration at 0.05 h ([1]; female, C.B-17 SCID, mouse, plasma, iv, AZD4320 dosed at 5 mg/kg, 0.05 hr, read-out: Concentration AZD4320 in Plasma, individual animals): 13900 ng/mL
concentration at 0.5 h ([1]; female, C.B-17 SCID, mouse, plasma, iv, AZD4320 dosed at 5 mg/kg, 0.5 hr, read-out: Concentration AZD4320 in Plasma, Mean): 977 ng/mL
concentration at 0.5 h ([1]; female, C.B-17 SCID, mouse, plasma, iv, AZD4320 dosed at 5 mg/kg, 0.5 hr, read-out: Concentration AZD4320 in Plasma, individual animals): 1080 ng/mL
concentration at 1 h ([1]; female, C.B-17 SCID, mouse, plasma, iv, AZD4320 dosed at 5 mg/kg, 1 hr, read-out: Concentration AZD4320 in Plasma, Mean): 436 ng/mL
concentration at 1 h ([1]; female, C.B-17 SCID, mouse, plasma, iv, AZD4320 dosed at 5 mg/kg, 1 hr, read-out: Concentration AZD4320 in Plasma, individual animals): 579 ng/mL
concentration at 2 h ([1]; female, C.B-17 SCID, mouse, plasma, iv, AZD4320 dosed at 5 mg/kg, 2 hr, read-out: Concentration AZD4320 in Plasma, Mean): 75.3 ng/mL
concentration at 2 h ([1]; female, C.B-17 SCID, mouse, plasma, iv, AZD4320 dosed at 5 mg/kg, 2 hr, read-out: Concentration AZD4320 in Plasma, individual animals): 79.7 ng/mL
concentration at 4 h ([1]; female, C.B-17 SCID, mouse, plasma, iv, AZD4320 dosed at 5 mg/kg, 4 hr, read-out: Concentration AZD4320 in Plasma, Mean): 86.3 ng/mL
concentration at 6 h ([1]; female, C.B-17 SCID, mouse, plasma, iv, AZD4320 dosed at 5 mg/kg, 6 hr, read-out: Concentration AZD4320 in Plasma, Mean): 60.1 ng/mL
concentration at 8 h ([1]; female, C.B-17 SCID, mouse, plasma, iv, AZD4320 dosed at 5 mg/kg, 8 hr, read-out: Concentration AZD4320 in Plasma, Mean): 41.3 ng/mL
clearance ([1]; female, C.B-17 SCID, plasma, mouse, 3-compartment model, conventional IV dose, read-out: Total Plasma Clearance CL (converted)): 0.493 mL/min
Concentration AZD4320 in Plasma, individual animals ([1]; AZD4320 dosed at 5 mg/kg, 0.05 hr): 16000 ng/mL
Concentration AZD4320 in Plasma, individual animals ([1]; AZD4320 dosed at 5 mg/kg, 0.5 hr): 1030 ng/mL and 822 ng/mL
Concentration AZD4320 in Plasma, individual animals ([1]; AZD4320 dosed at 5 mg/kg, 1 hr): 402 ng/mL and 328 ng/mL
Concentration AZD4320 in Plasma, individual animals ([1]; AZD4320 dosed at 5 mg/kg, 2 hr): 67.8 ng/mL and 78.4 ng/mL
Concentration AZD4320 in Plasma, individual animals ([1]; AZD4320 dosed at 5 mg/kg, 4 hr): 131 ng/mL and 54.4 ng/mL and 73.6 ng/mL
Concentration AZD4320 in Plasma, individual animals ([1]; AZD4320 dosed at 5 mg/kg, 6 hr): 92.1 ng/mL and 39.5 ng/mL and 48.8 ng/mL
Concentration AZD4320 in Plasma, individual animals ([1]; AZD4320 dosed at 5 mg/kg, 8 hr): 52.9 ng/mL and 53.4 ng/mL and 17.6 ng/mL
Compartmental Micro Constant k12 ([1]; mouse, 3-compartment model): 2.31 h⁻¹
Compartmental Micro Constant k13 ([1]; mouse, 3-compartment model): 3.92 h⁻¹
Compartmental Micro Constant k21 ([1]; mouse, 3-compartment model): 0.108 h⁻¹
Compartmental Micro Constant k31 ([1]; mouse, 3-compartment model): 4.36 h⁻¹
Central Compartment Volume Vc ([1]; mouse, 3-compartment model, conventional IV dose): 0.0042 L
Platelet count, individual rat (platelets; 10mg/kg, Day 2 (3h post dose), 10 mg/kg): 31 10^9/L and 28 10^9/L and 46 10^9/L and 13 10^9/L
Platelets post-dose (platelets; rat, Dose 10 mg/kg (AZD4320 equivalent 10 for AZD4320, 3 for conjugates)): 30 109/l
NOEL (no observed effect level), cardiovascular system (telemetered dogs; dog): 0.2 mg/kg
ECG PR interval (telemetered dogs; [2]): 111 ms
ECG QRS duration (telemetered dogs; [2]): 46 ms
Left ventricular -dP/dt (mmHg/s) (telemetered dogs; [2]): 3600 mmHg/s
QRS amplitude (% baseline) (telemetered dogs; [2]): 92 % baseline
Systolic blood pressure (mmHg) (telemetered dogs; [2]): 151 mmHg
ECG PR interval (telemetered dogs; [3]): 116 ms
ECG QRS duration (telemetered dogs; [3]): 48 ms
Left ventricular -dP/dt (mmHg/s) (telemetered dogs; [3]): 3490 mmHg/s
QRS amplitude (% baseline) (telemetered dogs; [3]): 71 % baseline
Systolic blood pressure (mmHg) (telemetered dogs; [3]): 155 mmHg
ECG PR interval (telemetered dogs; [4]): 111 ms
ECG QRS duration (telemetered dogs; [4]): 47 ms
QRS amplitude (% baseline) (telemetered dogs; [4]): 83 % baseline
Systolic blood pressure (mmHg) (telemetered dogs; [4]): 145 mmHg
ECG PR interval (telemetered dogs; [5]): 109 ms and 90 ms and 88 ms
ECG QRS duration (telemetered dogs; [5]): 48 ms and 38 ms and 40 ms and 37 ms
Left ventricular -dP/dt (mmHg/s) (telemetered dogs; [5]): 3401 mmHg/s and 3547 mmHg/s and 3477 mmHg/s and 4862 mmHg/s
QRS amplitude (% baseline) (telemetered dogs; [5]): 105 % baseline and 100 % baseline and 97 % baseline and 101 % baseline
